{"source": "patent US20260217700A1", "about": "“KINESIN KIF18A INHIBITOR AND USE THEREOF” (SHANGHAI APEIRON THERAPEUTICS COMPANY LIMITED, priority 2022, published 2026)", "key": {"[1]": {"target": "T1, Human KIF18A (amino acid sequence 1-417) (Homo sapiens, UniProt Q8NI77)", "T1 construct": "purchased Viva Biotech (Shanghai) Ltd", "T1 sequence (Q8NI77 1-417)": "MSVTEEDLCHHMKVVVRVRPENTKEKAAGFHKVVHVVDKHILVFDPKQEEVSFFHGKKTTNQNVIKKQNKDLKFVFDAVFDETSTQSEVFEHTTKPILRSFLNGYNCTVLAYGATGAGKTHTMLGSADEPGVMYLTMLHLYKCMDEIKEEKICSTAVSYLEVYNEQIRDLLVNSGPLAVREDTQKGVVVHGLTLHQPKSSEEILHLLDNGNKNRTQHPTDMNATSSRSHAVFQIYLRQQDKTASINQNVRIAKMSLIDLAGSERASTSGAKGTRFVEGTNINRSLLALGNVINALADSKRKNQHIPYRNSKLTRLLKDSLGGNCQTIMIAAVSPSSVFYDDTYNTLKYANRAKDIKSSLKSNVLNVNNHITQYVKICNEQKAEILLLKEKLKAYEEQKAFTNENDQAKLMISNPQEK", "test": "Enzymatic activity test (ADP-Glo, microtubule-stimulated ATPase)", "assay_type": "biochemical", "settings": "KIF18A 2.5 nM, ATP 25 μM, microtubules 60 μg/mL, 120 min at ambient temperature, ADP-Glo chemiluminescence; read-out: Enzyme Activity", "procedure": "Materials: Human KIF18A (amino acid sequence 1-417) was purchased from Viva Biotech (Shanghai) Ltd.; the ADP-Glo™ protein kinase kit was acquired from Promega, USA; tubulin was sourced from Cytoskeleton, USA; and the 384-well assay plate and Envision multifunctional microplate reader were obtained from PerkinElmer, USA.\nEnzymatic Activity Test: Dissolve the compound powder in DMSO to prepare a stock solution of 10 mM. Then perform gradient dilution for the compounds in the microplate to achieve a final concentration of […]. Then, add 2.5 μL each of tubulin, compound, ATP, and KIF18A protein to the microplate in sequence for reaction at ambient temperature for 120 min. The final concentrations in the enzyme reaction are 60 μg/mL for microtubules, 25 μM for ATP, and 2.5 nM for KIF18A protein. After the enzyme reaction, add 10 μL of ADP-GLO reaction reagent to each well and incubate at ambient temperature for 30 min. After that, add […] to each well and incubate at ambient temperature for 30 min in the dark. Finally, perform chemiluminescence detection using the PerkinElmer Envision."}, "OVCAR3 cells": {"system": "OVCAR3 cells", "test": "Cell proliferation activity test (CyQUANT Direct)", "assay_type": "cell-based", "settings": "read-out: OVCAR-3 Cell Viability_IC50_nM", "procedure": "Materials and Cells: OVCAR3 cells were purchased from Nanjing Cobioer Biosciences Co., Ltd. RPMI-1640 medium, fetal bovine serum, and the CyQUANT Direct Cell Proliferation Assay kit were purchased from Thermo Fisher Scientific, USA; 96-well cell culture plates were sourced from Corning, USA.\nCell Culture: Culture OVCAR3 cells with RPMI-1640 medium containing 10% fetal bovine serum and incubate them in a 5% CO2 incubator at 37° C. Only cells in the logarithmic growth phase can be used for the test.\nInoculate OVCAR3 cells into a 96-well cell culture plate at 90 μL per well and incubate overnight in a 5% CO2 incubator at 37° C. Dissolve the compound powder in DMSO to prepare a stock solution of 10 mM. Then perform gradient dilution for the compounds in the microplate to achieve a final concentration of 0-10 μM. Add 10 μL of cell culture medium containing compounds to each well to make the final DMSO content 0.2%. Incubate the cell plates in a 5% CO2 incubator at 37° C. for 3 days. Add 100 μL of CyQUANT detection reagent to each well, react at 37° C. for 60 min, and perform fluorescence detection using the PerkinElmer Envision."}, "HT29 cells": {"system": "HT29 cells", "test": "CyQuant cell proliferation activity test", "assay_type": "cell-based", "settings": "read-out: HT-29 Cell Viability_IC50_nM", "procedure": "Materials and Cells: HT29 cells were purchased from Nanjing Cobioer Biosciences Co., Ltd.; RPMI-1640 medium, fetal bovine serum, Trypsin-EDTA (0.25%), 96-well plates, and CyQuant reagents were purchased from ThermoFisher (USA); DMSO was purchased from SIGMA (USA).\nCell Culture: Culture HT29 cells with RPMI-1640 containing 10% fetal bovine serum under the condition of 37° C. and 5% CO2. Only cells in the logarithmic growth phase can be used for the test.\nCell Proliferation Activity Test: Use the CyQuant reagent to detect the proliferation inhibitory activity of compounds on HT29 cells. The cell density was adjusted, and 100 μL per well was inoculated into a 96-well plate (HT29 at 2000 cells per well), then incubated overnight at 37° C. and 5% CO2. Add compounds of various target concentrations (initial concentration of 3000 nM, 3-fold dilution, 9 concentration gradients), and make the DMSO content 0.2%. The cell plate was incubated at 37° C. in 5% CO2 for 3 days. Incubate with CyQuant reagent for 1 h, read the plate by Envision, and calculate IC50 using XLFIT."}, "[2]": {"settings": "Homo sapiens, OVCAR-3, 72 h, OVCAR3 cells, 3 days incubation, CyQUANT fluorescence detection, DMSO 0.2%"}, "[3]": {"settings": "Homo sapiens, HT-29, 72 h, HT29 at 2000 cells per well, 3 days incubation, CyQuant, initial concentration 3000 nM, DMSO 0.2%"}}, "note": "pIC50: −log10 of the molar value. Like-named read-outs stand apart in the source and are kept apart here."}
{"smiles": "Cc1cc(NC(=O)c2c(N3CCC4(CC3)CC4)cc(NS(=O)(=O)CCO)c3ccccc23)nc(N2CCC(F)(F)CC2)n1", "note": "[Example 4, N-(2-(4,4-difluoropiperidin-1-yl)-6-methylpyrimidin-4-yl)-4-(2-_hydroxyethylsulfonamido)-2-(6-azaspiro[2.5]octan-6-yl)-1-naphthamide]", "values": [{"measurement": "pIC50", "setting": "[1]", "value": 6.76}, {"measurement": "pIC50", "setting": "OVCAR3 cells", "value": 7.43}, {"measurement": "pIC50", "setting": "HT29 cells", "value": 7.28}]}
{"smiles": "Cc1cc(NC(=O)c2c(N3CCC4(CC3)CC4)cc(NS(=O)(=O)C(C)(C)CO)c3c2CCC3)nc(N2CCC(F)(F)CC2)n1", "note": "[Example 11, N-(2-(4,4-difluoropiperidin-1-yl)-6-methylpyrimidin-4-yl)-7-((2-hydroxy-1,1-dimethylethyl)sulfonamide)-5-(6-azaspiro[2.5]oct-6-yl)-2,3-dihydro-1H-indene-4-carboxamide]", "values": [{"measurement": "pIC50", "setting": "[1]", "value": 6.77}, {"measurement": "pIC50", "setting": "OVCAR3 cells; [2]", "value": 7.70}, {"measurement": "pIC50", "setting": "HT29 cells; [3]", "value": 7.54}]}
{"smiles": "COc1cc(NC(=O)c2c(N3CCC4(CC3)CC4)cc(NS(=O)(=O)CCO)c3ccccc23)nc(N2CCC(F)(F)CC2)n1", "note": "[Example 7, 2-{6-Azaspiro[2.5]octan-6-yl}-N-[2-(4,4-difluoropiperidin-1-yl)-6-methoxypyrimidin-4-yl]-4-(2-hydroxyethanesulfonamido)naphthalene-1-carboxamide]", "values": [{"measurement": "pIC50", "setting": "[1]", "value": 6.20}, {"measurement": "pIC50", "setting": "OVCAR3 cells; [2]", "value": 7.01}, {"measurement": "pIC50", "setting": "HT29 cells; [3]", "value": 6.91}]}
{"smiles": "Cc1cc(NC(=O)c2c(N3CCC4(CC3)CC4)cc(NS(=O)(=O)CCO)c3ncccc23)nc(N2CCC(F)(F)CC2)n1", "note": "[Example 5, N-(2-(4,4-difluoropiperidin-1-yl)-6-methylpyrimidin-4-yl)-8-(2-hydroxyethanesulfonamido)-6-(6-azaspiro[2.5]octan-6-yl)quinoline-5-carboxamide]", "values": [{"measurement": "pIC50", "setting": "[1]", "value": 6.87}, {"measurement": "pIC50", "setting": "OVCAR3 cells; [2]", "value": 7.44}, {"measurement": "pIC50", "setting": "HT29 cells; [3]", "value": 7.19}]}
{"smiles": "CC(CO)S(=O)(=O)Nc1cc(N2CCC3(CC2)CC3)c(C(=O)Nc2cc3sc(N)nc3c(N3CCC(F)(F)CC3)c2F)c2ccccc12", "note": "(stereo not drawn) [Example 10, N-[2-amino-4-(4,4-difluoropiperidin-1-yl)-5-fluoro-1,3-benzothiazol-6-yl]-2-{6-azaspiro[2.5]octan-6-yl}-4-(1-hydroxypropane-2-sulfonamido)naphthalene-1-carboxamide]", "values": [{"measurement": "pIC50", "setting": "[1]", "value": 6.74}, {"measurement": "pIC50", "setting": "OVCAR3 cells; [2]", "value": 7.46}, {"measurement": "pIC50", "setting": "HT29 cells; [3]", "value": 7.36}]}
{"smiles": "O=C(Nc1cc2cccnc2c(N2CCC(F)(F)CC2)c1F)c1c(N2CCC3(CC2)CC3)cc(NS(=O)(=O)CCO)c2ccccc12", "note": "[Example 6, 2-{6-Azaspiro[2.5]octan-6-yl}-N-[8-(4,4-difluoropiperidin-1-yl)-7-fluoroquinolin-6-yl]-4-(2-hydroxyethanesulfonamido)naphthalene-1-carboxamide]", "values": [{"measurement": "pIC50", "setting": "[1]", "value": 6.63}, {"measurement": "pIC50", "setting": "OVCAR3 cells; [2]", "value": 7.17}, {"measurement": "pIC50", "setting": "HT29 cells; [3]", "value": 7.13}]}
{"smiles": "Cc1cc(NC(=O)c2c(N3CCC4(CC3)CC4)cc(NS(=O)(=O)CCO)c3cccnc23)nc(N2CCC(F)(F)CC2)n1", "note": "[Example 8, N-(2-(4,4-difluoropiperidin-1-yl)-6-methylpyrimidin-4-yl)-5-((2-hydroxyethyl)sulfonamido)-7-(6-azaspiro[2.5]octan-6-yl)quinoline-8-carboxamide]", "values": [{"measurement": "pIC50", "setting": "[1]", "value": 6.55}, {"measurement": "pIC50", "setting": "OVCAR3 cells; [2]", "value": 6.31}, {"measurement": "pIC50", "setting": "HT29 cells; [3]", "value": "< 6.00"}]}
{"smiles": "Cc1cc(NC(=O)c2c(N3CCC4(CC3)CC4)cc(NS(=O)(=O)CCO)c3c2OCC3)nc(N2CCC(F)(F)CC2)n1", "note": "[Example 3, N-(2-(4,4-difluoropiperidin-1-yl)-6-methylpyrimidin-4-yl)-4-(2-hydroxyethylsulfonamido)-6-(6-azaspiro[2.5]octan-6-yl)-2,3-dihydrobenzofuran-7-carboxamide]", "values": [{"measurement": "pIC50", "setting": "[1]", "value": 7.57}, {"measurement": "pIC50", "setting": "OVCAR3 cells; [2]", "value": 7.55}, {"measurement": "pIC50", "setting": "HT29 cells; [3]", "value": 7.35}]}
{"smiles": "Cc1cc(NC(=O)c2c(N3CCC4(CC3)CC4)cc(NS(=O)(=O)CCO)n3ccnc23)nc(N2CCC(F)(F)CC2)n1", "note": "[Example 1, N-(2-(4,4-difluoropiperidin-1-yl)-6-methylpyrimidin-4-yl)-5-(2-hydroxyethylsulfonamido)-7-(6-azaspiro[2.5]octan-6-yl)imidazo[1,2-a]pyridine-8-carboxamide]", "values": [{"measurement": "pIC50", "setting": "[1]", "value": 6.95}, {"measurement": "pIC50", "setting": "OVCAR3 cells; [2]", "value": 6.35}, {"measurement": "pIC50", "setting": "HT29 cells; [3]", "value": 6.06}]}
{"smiles": "Cc1cc(NC(=O)c2c(N3CCC4(CC3)CC4)cc(NS(=O)(=O)CCO)c3ccoc23)nc(N2CCC(F)(F)CC2)n1", "note": "[Example 2, N-(2-(4,4-difluoropiperidin-1-yl)-6-methylpyrimidin-4-yl)-4-(2-hydroxyethylsulfonamido)-6-(6-azaspiro[2.5]octan-6-yl)-benzofuran-7-carboxamide]", "values": [{"measurement": "pIC50", "setting": "[1]", "value": 7.54}, {"measurement": "pIC50", "setting": "OVCAR3 cells; [2]", "value": 7.60}, {"measurement": "pIC50", "setting": "HT29 cells; [3]", "value": 7.30}]}
{"smiles": "Cc1cc(NC(=O)c2c(N3CCC4(CC3)CC4)cc(NS(=O)(=O)CCO)c3c2CCC3)nc(N2CCC(F)(F)CC2)n1", "note": "[Example 9, N-(2-(4,4-difluoropiperidin-1-yl)-6-methylpyrimidin-4-yl)-7-((2-hydroxyethyl)sulfonamido)-5-(6-azaspiro[2.5]oct-6-yl)-2,3-dihydro-1H-indene-4-carboxamide]", "values": [{"measurement": "pIC50", "setting": "[1]", "value": 6.75}, {"measurement": "pIC50", "setting": "OVCAR3 cells; [2]", "value": 7.59}, {"measurement": "pIC50", "setting": "HT29 cells; [3]", "value": 7.43}]}
